From PubChem BioAssay AID624321 (Sanford-Burnham Center for Chemical Genomics, 2012)
Values after ≈ are worked out from the molar mass of the structure shown. Active and inactive are the calls of the source. The rule behind the calls is not given here.

What follows are molecules tested on aqueous solubility in 1x PBS (assay: aqueous solubility in phosphate-buffered saline, ADME assay, biophysical, set 2 (AID 624321)). Conditions: at 100 µM; active compounds read high.

Row | Compound | solubility
1 | COc1ccc(C2CC(c3ccccc3)=NN2c2ccc(S(N)(=O)=O)cc2)cc1 (centres undefined) | 0.02 µg/mL (inactive) (≈ 0.0491 µM)
2 | COc1ccc(OC)c(-c2nnc3n2N=C(c2ccc(OC)c(OC)c2)CS3)c1 | 26.8 µg/mL (≈ 65 µM)
3 | CC[C@H]1CN2CCc3cc(OC)c(OC)cc3[C@@H]2C[C@@H]1C[C@H]1NCCc2cc(OC)c(OC)cc21 | > 55 µg/mL
4 | c1ccc2c(Nc3nnc(-c4ccncc4)s3)cccc2c1 | 2.7 µg/mL (inactive) (≈ 8.87 µM)
5 | c1ccc(-c2nnc(N3CCOCC3)nc2-c2ccccc2)cc1 | 2.1 µg/mL (inactive) (≈ 6.6 µM)
6 | Cc1ccc(S(=O)(=O)NCc2ccc(C(=O)NCCN(Cc3ccccc3)C(C)C)cc2)cc1 | 18.6 µg/mL (≈ 38.8 µM)
7 | Cc1ccc(N2CCN(S(=O)(=O)N3CCCCC3)CC2)c(C)c1 | 1.4 µg/mL (inactive) (≈ 4.15 µM)
8 | Cc1cc2c(s1)c1cnn(Cc3ccccc3F)c(=O)c1n2C | 0.08 µg/mL (inactive) (≈ 0.244 µM)
9 | Cc1ccc(C(=O)n2c3ccccc3c3ccccc32)cc1 | 0.03 µg/mL (inactive) (≈ 0.105 µM)
10 | N#C/C(=C\c1ccc([N+](=O)[O-])o1)c1nc2ccccc2[nH]1 | 0.17 µg/mL (inactive) (≈ 0.607 µM)
11 | O=C(CCNS(=O)(=O)c1cccc2nsnc12)N1CCN(c2ccccn2)CC1 | > 43 µg/mL
12 | N#Cc1ccccc1CSc1nc2ncc(Br)cc2[nH]1 | 0.42 µg/mL (inactive) (≈ 1.22 µM)
13 | Cc1ccc(-n2c(N)c(C#N)c(-c3ccccc3)c(C#N)c2=O)cc1 | 0.83 µg/mL (inactive) (≈ 2.54 µM)
14 | CN(C)c1oc(-c2ccc(OCc3ccc(Cl)cc3)cc2)nc1C#N | 0.03 µg/mL (inactive) (≈ 0.0848 µM)
15 | O=S1(=O)Nc2c(ccc3cccnc23)-c2ccccc21 | > 28 µg/mL
16 | CCCN(CCC)CCNC(=O)C1CCN(Cc2nc(-c3ccc(Cl)cc3)oc2C)CC1 | > 46 µg/mL
17 | CCCn1ncc(CN2CCCC(C(=O)c3cccc(OC(C)C)c3)C2)c1C (centres undefined) | 29.6 µg/mL (≈ 77.2 µM)
18 | Cc1ccc(S(=O)(=O)C(c2ccccc2)c2c(C)noc2C)cc1 (centres undefined) | 17.9 µg/mL (≈ 52.4 µM)
19 | COc1nc(-c2ccccc2)nnc1-c1ccccc1 | 0.18 µg/mL (inactive) (≈ 0.684 µM)
20 | Cc1ccc(C)c(NS(=O)(=O)c2cc(C(=O)Nc3ccccc3-c3ccccc3)ccc2Cl)c1 | 0.43 µg/mL (inactive) (≈ 0.876 µM)
21 | Cc1ccc(S(=O)(=O)n2c(N)nc3ccccc32)cc1 | 1.8 µg/mL (inactive) (≈ 6.26 µM)
22 | CC(=O)c1ccc(N2CCN(S(=O)(=O)c3ccc4c(c3)CC(=O)N4)CC2)cc1 | 3 µg/mL (inactive) (≈ 7.51 µM)
23 | O=S(=O)(NC1CCCCC1N1CCOCC1)c1ccc(Cl)cc1 (centres undefined) | > 36 µg/mL

Row | Compound | solubility
24 | Cc1cccc(-n2cnc3cc(C(=O)N4CCCCC4)ccc32)c1 | 26.3 µg/mL (≈ 82.3 µM)
25 | CCCc1nc2c(=O)n(C)c(=O)nc-2n(C)n1 | > 23 µg/mL
26 | O=c1oc2c(O)c(O)cc3c(=O)oc4c(O)c(O)cc1c4c23 | > 30 µg/mL
27 | Oc1cc(O)cc(/C=C/c2ccc(O)c(O)c2)c1 | 6.5 µg/mL (inactive) (≈ 26.6 µM)
28 | Cn1cnc([N+](=O)[O-])c1Sc1ncnc2nc[nH]c12 | > 27 µg/mL
29 | CN(C)C1=C(Cl)C(=O)N(c2ccc(Cl)c(Cl)c2)C1=O | < 0.01 µg/mL (inactive)
30 | COc1ccc(N(C(=O)CCl)C(C(=O)NCCc2ccccc2)c2cccs2)cc1Cl (centres undefined) | 0.51 µg/mL (inactive) (≈ 1.07 µM)
31 | CC(C)C(=O)NC(c1ccco1)c1ccc2cccnc2c1O (centres undefined) | 3.3 µg/mL (inactive) (≈ 10.6 µM)
32 | CCN1CCN(c2nc3ccccc3nc2C(C#N)C(=O)OC2CCCCC2)CC1 (centres undefined) | 24.3 µg/mL (≈ 59.6 µM)
33 | Cc1nc(SCc2nc3ccccc3[nH]2)c2oc3ccccc3c2n1 | 0.15 µg/mL (inactive) (≈ 0.433 µM)
34 | COc1ccccc1N(/N=C1\Sc2ccccc2C1=O)C(C)=O | 3.7 µg/mL (inactive) (≈ 11.3 µM)
35 | CN(C)c1nc(N)nc(CSc2nnnn2-c2cccc3ccccc23)n1 | 0.65 µg/mL (inactive) (≈ 1.71 µM)
36 | Cc1ccc(C)c(OCCn2cc(C(=O)O)c3ccccc32)c1 | 25.1 µg/mL (≈ 81.1 µM)
37 | COc1ccc(CSc2nc(C)cc(=O)[nH]2)cc1 | > 26 µg/mL
38 | CCOC(=O)C(C)Oc1cccc2c(=O)n(CC(=O)Nc3ccc4c(c3)OCCO4)ccc12 (centres undefined) | 0.35 µg/mL (inactive) (≈ 0.774 µM)
39 | COc1cccc(-c2nc(-c3ccc(NC(=O)Cc4ccccc4OC)cc3)no2)c1 | 0.04 µg/mL (inactive) (≈ 0.0963 µM)
40 | Cc1ccc(NC(=O)CCC(=O)N/N=C/c2ccc([N+](=O)[O-])o2)cc1C | 0.43 µg/mL (inactive) (≈ 1.2 µM)
41 | c1ccc(CC2CCN(c3ncnc4sccc34)CC2)cc1 | 0.03 µg/mL (inactive) (≈ 0.0969 µM)
42 | CCCN1CNc2c(c(=O)[nH]c(=S)n2CCc2ccc(OC)c(OC)c2)C1 | > 39 µg/mL
43 | O=[N+]([O-])c1ccc(CN2CCOCCOCCN(Cc3ccc([N+](=O)[O-])cc3)CCOCC2)cc1 | 21.7 µg/mL (≈ 44.4 µM)
44 | CN1CSC(=S)N(C)C1 | > 16 µg/mL
45 | C=CCn1c(SCC(=O)c2ccc(O)c(O)c2)nnc1-c1ccccc1OC | 26 µg/mL (≈ 65.4 µM)
46 | Cn1nnnc1Sc1ncnc2scc(-c3ccccc3)c12 | 2.4 µg/mL (inactive) (≈ 7.35 µM)

Row | Compound | solubility
47 | Cc1cc(C(=O)CN2C(=O)CCC2=O)c(C)n1Cc1ccccc1 | 17.8 µg/mL (≈ 54.9 µM)
48 | Cc1ccnc(NC(=O)CCCOc2cc(=O)n(C)c3ccccc23)c1 | 8.3 µg/mL (inactive) (≈ 23.6 µM)
49 | O=C(CSc1cccc2cccnc12)N1CCCC1 | > 27 µg/mL
50 | Cc1cc(C)n(-c2nc(NCCCO)c3c4c(sc3n2)CCCC4)n1 | 17.1 µg/mL (≈ 47.8 µM)
51 | O=C(O)CCC(NS(=O)(=O)c1ccc(-c2ccccc2)cc1)C(=O)O (centres undefined) | > 36 µg/mL
52 | Brc1ccc2c(c1)CN1CCCC1=N2 | > 25 µg/mL
53 | CC1CCCN(C(C(=O)Nc2ccc3c(c2)OCCO3)c2ccccc2)C1 (centres undefined) | 5.2 µg/mL (inactive) (≈ 14.2 µM)
54 | Cc1ccccc1N1CCN(c2ncnc3c2cnn3Cc2ccc(Cl)cc2)CC1 | 0.01 µg/mL (inactive) (≈ 0.0239 µM)
55 | CCc1nnc(NC(=O)c2ccc(NS(=O)(=O)c3ccccc3)cc2)s1 | 1.3 µg/mL (inactive) (≈ 3.35 µM)
56 | CCCOc1ccc(-c2nc(OC)c3ccccc3n2)cc1 | < 0.01 µg/mL (inactive)
57 | COc1ccc(S(=O)(=O)n2nc(OC(=O)c3ccccc3)cc2N)cc1 | 1.1 µg/mL (inactive) (≈ 2.95 µM)
58 | CCCC(=O)Nc1cccc(NC(=O)c2ccccc2Br)c1 | > 36 µg/mL
59 | COC(=O)c1ccccc1NC(=O)c1ccc(F)cc1 | 0.94 µg/mL (inactive) (≈ 3.44 µM)
60 | CSc1nc(-c2ccc(C)cc2)nc(C(Cl)Cl)n1 | 0.07 µg/mL (inactive) (≈ 0.233 µM)
61 | O=c1c2ccccc2[se]n1-c1ccccc1 | 7.2 µg/mL (inactive) (≈ 26.3 µM)
62 | CCc1oc2ccccc2c1C(=O)c1cc(Br)c(O)c(Br)c1 | > 42 µg/mL
63 | O=C(c1ccccn1)N(Cc1cccs1)C1(C(=O)NC2CCCCC2)CCCCC1 | 7.3 µg/mL (inactive) (≈ 17.2 µM)
64 | O=C(O)c1ccc(N2C(=O)/C(=C/c3ccc(-c4ccc([N+](=O)[O-])cc4)o3)C=C2c2ccccc2)cc1 | 0.92 µg/mL (inactive) (≈ 1.92 µM)
65 | COc1ccc(CNCc2cccc3ccccc23)cc1 | 29.6 µg/mL (≈ 107 µM)
66 | C/C=C/Cn1c(SCCCc2ccccc2)nc2c1c(=O)[nH]c(=O)n2C | 0.19 µg/mL (inactive) (≈ 0.513 µM)
67 | O=C(COC(=O)C12CC3CC(CC(C3)C1)C2)NCc1ccco1 | < 0.01 µg/mL (inactive)
68 | CC(C)(C)OC(=O)NCCc1nnc(S(=O)(=O)Cc2ccc(Cl)cc2Cl)o1 | 5.8 µg/mL (inactive) (≈ 13.3 µM)
69 | O=c1[nH]c(SCc2ccc(Cl)cc2)nc2c1CCC2 | 0.62 µg/mL (inactive) (≈ 2.12 µM)

Row | Compound | solubility
70 | COc1cc(NC(=O)c2cc(C3CC3)on2)c(OC)cc1Cl | < 0.01 µg/mL (inactive)
71 | Cc1ccc(NS(=O)(=O)c2ccc3c(c2)CCC(=O)N3)cc1C | 24.4 µg/mL (≈ 73.8 µM)
72 | O=C1CCCC2=C1C1(CCCC1)N=C(Nc1nc3ccccc3o1)N2 | 0.13 µg/mL (inactive) (≈ 0.386 µM)
73 | COc1ccc(Sc2ccc(NC(=O)c3ccccc3Cl)cc2C#N)cc1 | < 0.01 µg/mL (inactive)
74 | COc1ccc(S(=O)(=O)N2CCN(S(=O)(=O)c3ccc4c(c3)OCCO4)CC2)cc1 | 0.26 µg/mL (inactive) (≈ 0.572 µM)
75 | COc1ccc(OC)c(S(=O)(=O)Nc2cnc3ccccc3c2)c1 | 25.6 µg/mL (≈ 74.3 µM)
76 | Cc1cc(C)nc(-n2nc(C)c(Sc3ccc(F)cc3)c2N)n1 | 4.8 µg/mL (inactive) (≈ 14.6 µM)
77 | CCOc1ccc(-c2nc(-c3ccncc3)no2)cc1OCC | 0.77 µg/mL (inactive) (≈ 2.47 µM)
78 | O=C1C2CC=CCC2C(=O)N1c1n[nH]c(-c2ccccc2)n1 (centres undefined) | > 29 µg/mL
79 | O=C(O)c1cccnc1SCCc1ccccc1 | > 26 µg/mL
80 | O=c1[nH]c2c(s1)C(c1cccnc1)C1C3CCC(C3)C1S2 (centres undefined) | > 31 µg/mL
81 | COc1ccc(C2c3c(ncn(CCN4CCOCC4)c3=N)Oc3ccc4ccccc4c32)cc1OC (centres undefined) | 35.4 µg/mL (≈ 71 µM)
82 | O=C1NCCCc2c1oc1ccc(O)cc21 | 16.8 µg/mL (≈ 77.3 µM)
83 | CCCc1cc(C(=O)N(C2CCCCC2)C2CCCCC2)no1 | 1.5 µg/mL (inactive) (≈ 4.71 µM)
84 | CCOc1ccc(NC(=S)N2CCC(C(O)(c3ccccc3)c3ccccc3)CC2)cc1 | 0.92 µg/mL (inactive) (≈ 2.06 µM)
85 | Cc1cc(-c2nnc3n2CCCCC3)c(C)n1-c1ccccc1 | > 30 µg/mL
86 | O=C(O)c1ccccc1OCc1ccccc1Br | > 30 µg/mL
87 | O=C(COc1ccccc1Br)NCCc1nc2ccccc2[nH]1 | 29.4 µg/mL (≈ 78.6 µM)
88 | NC(=O)C1CCN(c2nc(-c3ccc(Br)cc3)cs2)CC1 | 0.14 µg/mL (inactive) (≈ 0.382 µM)
89 | CS(=O)(=O)c1ccc(C(=O)OCC(=O)NC23CC4CC(CC(C4)C2)C3)cc1[N+](=O)[O-] | 4.8 µg/mL (inactive) (≈ 11 µM)
